According to US6107070A, “Human manganese superoxide dismutase proteins” (University of Florida, priority 1998, dated 2000):
Residue numbers refer to the chain shown, from its start.

Columns and labels:
Type in all cases: biochemical
[1] = molecular target: T1, human manganese superoxide dismutase (hMn SOD) variant Y34F (Tyr 34 replaced by Phe) (Homo sapiens, UniProt P04179, Y58F); assay: Decay of superoxide catalyzed by Y34F hMnSOD, pulse radiolysis
T1 construct: as a mature protein tagged with an extra Met at the amino terminus; made in house; host or cells: E. coli QC774 (SodA/SodB mutant), pTrc99A
T1 sequence (P04179 25-222 Y58F): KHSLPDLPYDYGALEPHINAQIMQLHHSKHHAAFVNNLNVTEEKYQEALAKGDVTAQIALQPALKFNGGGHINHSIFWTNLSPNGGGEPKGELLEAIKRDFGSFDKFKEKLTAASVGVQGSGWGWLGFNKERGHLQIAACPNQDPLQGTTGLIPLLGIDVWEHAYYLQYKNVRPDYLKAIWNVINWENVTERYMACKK
Experimental: (§1) Experiments were carried out at the Center for Fast Kinetics Research at the University of Texas at Austin using a 4-Mev van der Graaff accelerator. A single high-dose electron pulse was used to generate superoxide radical anions from oxygen in acqueous solutions containing 10 mM sodium formate as hydroxyl radical scavenger (Schwartz, 1981) and 50 μM EDTA in addition to buffer and enzyme. All pulse radiolysis experiments were carried out at 20 ° C. The dismutation of O2^- was followed spectrophotometrically from its absorbance at 250 nm (ε=2000M^1 cm^1, Rabani and Nielson, 1969) with a path length of 2.5 cm. Progress curves for each set of 6 to 9 experiments were averaged. Exposure to ultraviolet radiation was minimized by opening a mechanical shutter a fraction of a second before each pulse.
The kinetic mechanism of FIG. 8 used to describe the wild-type MnSOD can also describe catalysis by Y34F Mn SOD (FIG. 7), as shown by pulse radiolysis. […] In this stimulation, the breakdown of the enzyme-substrate complex for enzyme in the reduced state, represented by k3 in the scheme of FIG. 8, is much slower for Y34F compared with wild-type, whereas the values of k3 are the same for both enzymes. […] The rate constants in Y34F for actual formation of the dead-end complex itself, k5 and k5 are quite similar to those for wild-type.

[2] = molecular target: T2, human manganese superoxide dismutase (hMn SOD) variant H30S (His 30 replaced by Ser) (Homo sapiens, UniProt P04179, H54S); assay: Disproportionation of superoxide by H30S hMnSOD, stopped-flow, 20° C.; conditions: pH 9.6, 20° C.
T2 construct: as a mature protein tagged with an extra Met at the amino terminus; made in house
T2 sequence (P04179 25-222 H54S): T1 sequence (P04179 25-222 Y58F) with H30S, F34Y
Experimental: Experiments were based on the stabilization of KO2 in aprotic solvent and the subsequent large dilution of this solution by an aqueous solution of enzyme in a stopped-flow apparatus, as described by McClune and Fee (1978). KO2 was dissolved in a mixture of dimethyl sulfoxide and […] (2:1 by volume; Aldrich, spectrophotometric grade) with solubility of KO2 enhanced with 18-crown-6 (Valentine and Curtis, 1975). The stopped-flow spectrophotometer (Kinetic Instruments, Ann Arbor, Mich.) was capable of efficient mixing of this solution with an acqueous solution of enzyme in buffer with a dead time between 1.5 and 2.0 ms. One drive syringe (capacity 50 μl) contained the aprotic solution of O2. This was diluted fifty-fold by the contents of a second syringe (capacity 2.5 ml) which contained enzyme, EDTA, and buffer. The decay of superoxide in initial velocity experiments and progress curves was monitored by its absorption at 250 to 300 nm. Stopped-flow experiments were carried out at […]. Four or more kinetic traces were averaged to reduce noise. Steady-state parameters were obtained by least-squares analysis of such data (Leatherbarrow (1987) "Enzfitter: a nonlinear regression data analysis program for the IBM PC" Elsevier BIOSOFT, Cambridge).
In the present study, several novel hMnSOD proteins containing substitutions of His 30 (referring to the amino acid sequence of SEQ ID NO:2) were prepared by PCR site directed mutagenesis and purified by column chromatography, as described in the Materials and Methods section above, and as also described by Hsu et al. (1996) J. Biol. Chem. 271: 1768; and Hsieh et al. (1998) Biochemistry 37: 4731. In particular, His 30 was substituted with each of Ala, Asn, Ser and Gln. The resulting novel hMnSOD proteins containing a His 30 substitution were then assayed for enzymatic activity and product inhibition at 20° C. by measuring the absorbance of superoxide at 250 nm using stopped-flow spectrophotometry, as described above in the Materials and Methods section. […]

[3] = molecular target: T3, human manganese superoxide dismutase (hMn SOD) variant Q143N (Gln 143 replaced by Asn), SEQ ID NO:3 (Homo sapiens, UniProt P04179, Q167N); assay: Decay of superoxide catalyzed by Q143N hMnSOD, pulse radiolysis; conditions: FIG. 1; first-order fit, 35 μM enzyme, pH 9.6, 20° C.
T3 construct: as a mature protein tagged with an extra Met at the amino terminus; made in house; host or cells: E. coli QC774 (SodA/SodB mutant), pTrc99A
T3 sequence (P04179 25-222 Q167N): T1 sequence (P04179 25-222 Y58F) with F34Y, Q143N
Experimental: The solutions contained 0.5 μM wild-type MnSOD or 35 μM Q143N hMnSOD and 50 μM EDTA, 10 mM sodium formate, and 2.0 mM sodium pyrophosphate and pH 9.6 and 20° C. The solid line for Q143N hMnSOD is least-squares fit to a first-order process corresponding to Kcat /Km =1×10^6 M^-1 s^-1.
as §1

[4] = Table 1, pulse radiolysis, 20° C., pH 9.6 (Guan et al., 1997)
[5] = Table 3, KINSIM fit to pulse radiolysis data, 20° C., pH 9.6

## [O]O [superoxide]
[1]; [4]
  kcat: 3.3 ms^-1
  kcat /km: 8.7e+08 M⁻¹ s⁻¹
[1]; [5]
  k1: 1000 s⁻¹
  k2: 5000 s⁻¹
  k4: 1000 M⁻¹ s⁻¹
  k5: 200 s⁻¹
  k-1: 2e+09 M⁻¹ s⁻¹
  k-3: 2e+09 M⁻¹ s⁻¹
  k-4: 10000 s⁻¹
  k-5: 2 × 10^4
[1]; approximate value
  kcat /km (diffusion controlled): ~10^9 M^-1 s^-1
[1]; obtained from Table 3 data and eqs 5-9 of Bull et al. (1991)
  Km: 4 µM
[2]; Table 4
  kcat: 1.8 ms^.1
  kcat /Km: 170 μM^.1 S^.1
[2]; Table 5
  ko /[E] (rate constant for the zero-order region of catalysis): 1,000 S^.1
[3]
  kcat /Km: 1e+06 M⁻¹ s⁻¹
